Data from PubChem BioAssay (NCI).
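Dose response: 5 concentrations. Exposure: 48 h. Format: 96-well plates. Endpoint: linear interpolation; highest concentration if not reached. TGI: concentration producing complete growth inhibition.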

Legend:
Experiment in all cases: NCI tumour cell line growth inhibition, 48 h
NCI/ADR-RES ovarian = tested on: NCI/ADR-RES ovarian
SK-OV-3 ovarian = tested on: SK-OV-3 ovarian
KM20L2 colon = tested on: KM20L2 colon
SK-MEL-28 melanoma = tested on: SK-MEL-28 melanoma
UO-31 renal = tested on: UO-31 renal
SK-MEL-2 melanoma = tested on: SK-MEL-2 melanoma
UACC-62 melanoma = tested on: UACC-62 melanoma
A498 renal = tested on: A498 renal
OVCAR-5 ovarian = tested on: OVCAR-5 ovarian
RPMI-8226 leukemia = tested on: RPMI-8226 leukemia
HCT-15 colon = tested on: HCT-15 colon
HL-60(TB) leukemia = tested on: HL-60(TB) leukemia
HOP-92 NSCLC = tested on: HOP-92 NSCLC
NCI-H23 lung = tested on: NCI-H23 lung
DLD-1 colon = tested on: DLD-1 colon
LOX IMVI melanoma = tested on: LOX IMVI melanoma
M19-MEL melanoma = tested on: M19-MEL melanoma
KM12 colon = tested on: KM12 colon
CCRF-CEM leukemia = tested on: CCRF-CEM leukemia
HCC-2998 colon = tested on: HCC-2998 colon
OVCAR-8 ovarian = tested on: OVCAR-8 ovarian
CAKI-1 renal = tested on: CAKI-1 renal
IGROV1 ovarian = tested on: IGROV1 ovarian
SNB-78 CNS = tested on: SNB-78 CNS
SF-295 CNS = tested on: SF-295 CNS
RXF 393 renal = tested on: RXF 393 renal
XF 498 CNS = tested on: XF 498 CNS
DMS 273 small cell lung = tested on: DMS 273 small cell lung
EKVX NSCLC = tested on: EKVX NSCLC
NCI-H226 lung = tested on: NCI-H226 lung
HOP-18 NSCLC = tested on: HOP-18 NSCLC
K-562 leukemia = tested on: K-562 leukemia
OVCAR-4 ovarian = tested on: OVCAR-4 ovarian
SN12K1 renal = tested on: SN12K1 renal
COLO 205 colon = tested on: COLO 205 colon
MOLT-4 leukemia = tested on: MOLT-4 leukemia
NCI-H460 lung = tested on: NCI-H460 lung
OVCAR-3 ovarian = tested on: OVCAR-3 ovarian
HOP-62 NSCLC = tested on: HOP-62 NSCLC
P388/ADR leukemia = tested on: P388/ADR leukemia
SNB-19 CNS = tested on: SNB-19 CNS
U251 CNS = tested on: U251 CNS
NCI-H522 lung = tested on: NCI-H522 lung
SW-620 colon = tested on: SW-620 colon
SK-MEL-5 melanoma = tested on: SK-MEL-5 melanoma
SNB-75 CNS = tested on: SNB-75 CNS
MCF7 breast = tested on: MCF7 breast
HCT-116 colon = tested on: HCT-116 colon
MALME-3M melanoma = tested on: MALME-3M melanoma
SF-539 CNS = tested on: SF-539 CNS
A549 NSCLC = tested on: A549 NSCLC
P388 leukemia = tested on: P388 leukemia
DMS 114 small cell lung = tested on: DMS 114 small cell lung
UACC-257 melanoma = tested on: UACC-257 melanoma
HT29 colon = tested on: HT29 colon
SN12C renal = tested on: SN12C renal
SF-268 CNS = tested on: SF-268 CNS

Oc1c(CNCCCN2CCCC2)cc(Cl)c2cccnc12 gave a TGI (NCI/ADR-RES ovarian) of 7.68 µM, a TGI (SK-OV-3 ovarian) of 15 µM and a TGI (KM20L2 colon) of 14.4 µM. It also gave a TGI (SK-MEL-28 melanoma) of 23.6 µM, a TGI (UO-31 renal) of 21.3 µM and a TGI (SK-MEL-2 melanoma) of 26.2 µM. It also gave a TGI (UACC-62 melanoma) of 5.79 µM, a TGI (A498 renal) of 29.9 µM and a TGI (OVCAR-5 ovarian) of 8.37 µM. For the same compound, the TGI (RPMI-8226 leukemia) was 16.3 µM, the TGI (HCT-15 colon) was 16.2 µM and the TGI (HL-60(TB) leukemia) was 5.91 µM. For the same compound, the TGI (HOP-92 NSCLC) was 33.7 µM, the TGI (NCI-H23 lung) was 23.9 µM and the TGI (DLD-1 colon) was 15 µM. For the same compound, the TGI (LOX IMVI melanoma) was 15.3 µM, the TGI (M19-MEL melanoma) was 9.61 µM and the TGI (KM12 colon) was 28.8 µM. For the same compound, the TGI (CCRF-CEM leukemia) was 13.6 µM, the TGI (HCC-2998 colon) was 10.2 µM and the TGI (OVCAR-8 ovarian) was 15.7 µM. For the same compound, the TGI (CAKI-1 renal) was 12.5 µM, the TGI (IGROV1 ovarian) was 20.7 µM and the TGI (SNB-78 CNS) was 33.5 µM. For the same compound, the TGI (SF-295 CNS) was 5.49 µM, the TGI (RXF 393 renal) was 25.2 µM and the TGI (XF 498 CNS) was 15.2 µM. For the same compound, the TGI (DMS 273 small cell lung) was 10.4 µM, the TGI (EKVX NSCLC) was 12.4 µM and the TGI (NCI-H226 lung) was 19.2 µM. For the same compound, the TGI (HOP-18 NSCLC) was 20.6 µM, the TGI (K-562 leukemia) was 7.38 µM and the TGI (OVCAR-4 ovarian) was 16.9 µM. It also gave a TGI (SN12K1 renal) of 4.1 µM, a TGI (COLO 205 colon) of 15.2 µM and a TGI (MOLT-4 leukemia) of 11.7 µM. It also gave a TGI (NCI-H460 lung) of 10.6 µM, a TGI (OVCAR-3 ovarian) of 11.9 µM and a TGI (HOP-62 NSCLC) of 7.24 µM. For the same compound, the TGI (P388/ADR leukemia) was 6.32 µM, the TGI (SNB-19 CNS) was greater than 100 µM and the TGI (U251 CNS) was 17 µM. The TGI (NCI-H522 lung) was 12.4 µM, the TGI (SW-620 colon) was 17.1 µM and the TGI (SK-MEL-5 melanoma) was 5.77 µM. For the same compound, the TGI (SNB-75 CNS) was 36.3 µM, the TGI (MCF7 breast) was 15.9 µM and the TGI (HCT-116 colon) was 12.8 µM. For the same compound, the TGI (MALME-3M melanoma) was 17.4 µM, the TGI (SF-539 CNS) was 10.1 µM and the TGI (A549 NSCLC) was 11.3 µM. The TGI (P388 leukemia) was 9.18 µM, the TGI (DMS 114 small cell lung) was 9.24 µM and the TGI (UACC-257 melanoma) was 24.2 µM. It also gave a TGI (HT29 colon) of 17.3 µM, a TGI (SN12C renal) of 24.6 µM and a TGI (SF-268 CNS) of 18.4 µM.
